Laboratory results reported in PubChem BioAssay (NCI).
Where “and” joins values, the source holds several entries; their conditions need not be identical. Identical values can stand only once.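 Method: 48-hour compound exposure of cells in 96-well plates, five concentrations, linear interpolation of endpoints. GI50 = concentration required for 50% inhibition of growth. TGI marks complete inhibition of growth.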

Legend:
Experiment in all cases: NCI-60 cell line screen, 48 h
M19-MEL melanoma = tested on: M19-MEL melanoma
SNB-78 CNS = tested on: SNB-78 CNS
KM20L2 colon = tested on: KM20L2 colon
DLD-1 colon = tested on: DLD-1 colon
LXFL 529 NSCLC = tested on: LXFL 529 NSCLC
PC-3 prostate = tested on: PC-3 prostate
T-47D breast = tested on: T-47D breast
MCF7 breast = tested on: MCF7 breast
NCI/ADR-RES ovarian = tested on: NCI/ADR-RES ovarian
MDA-MB-435 = tested on: MDA-MB-435

Row | Compound | TGI (M19-MEL melanoma) | TGI (SNB-78 CNS) | TGI (KM20L2 colon) | TGI (DLD-1 colon) | TGI (LXFL 529 NSCLC) | TGI (PC-3 prostate) | TGI (T-47D breast) | TGI (MCF7 breast) | TGI (NCI/ADR-RES ovarian) | TGI (MDA-MB-435) | GI50 (SNB-78 CNS) | GI50 (KM20L2 colon) | GI50 (DLD-1 colon) | GI50 (LXFL 529 NSCLC)
1 | O=C(CCCCCCCCCCc1ccccc1)c1c(O)cccc1O | 42.7 µM | > 100 µM | > 100 µM | 39.7 µM | 34.7 µM | – | – | – | – | – | – | – | – | –
2 | CC1CCC(O)C(C(O)CC2CC(=O)N(C)C(=O)C2)C1 (stereo not given) | > 100 µM | > 100 µM | > 100 µM | > 100 µM | > 100 µM | – | – | – | – | – | – | – | – | –
3 | COc1ccc([Se]c2ccc(OC)cc2OC)c(OC)c1 | 87.1 µM | 96.6 µM | 31.6 µM | > 100 µM | > 100 µM | – | – | – | – | – | – | – | – | –
4 | CCOC(=O)/C=C1\Nc2ccccc2C(c2ccccc2)=NC1OC(C)=O (stereo not given) | > 100 µM | > 100 µM | – | > 100 µM | > 100 µM | – | – | – | – | – | – | – | – | –
5 | c1ccc(SCCCC(Sc2ccccc2)Sc2ccccc2)cc1 | > 100 µM | > 100 µM | > 100 µM | > 100 µM | > 100 µM | – | – | – | – | – | – | – | – | –
6 | CN1CC2(CCCCC2)C(O)C12C=CCCC2 (stereo not given) | > 100 µM | > 100 µM | > 100 µM | > 100 µM | > 100 µM | – | – | – | – | – | – | – | – | –
7 | O=c1c2ccccc2nc(-c2ccccc2)n1NCC1(O)OCC(O)C(O)C1O (stereo not given) | > 100 µM | > 100 µM | > 100 µM | > 100 µM | > 100 µM | – | – | – | – | – | – | – | – | –
8 | Brc1ccc2c(c1)C1(c3cc(Br)ccc3-2)c2cc(Br)ccc2-c2ccc(Br)cc21 | > 100 µM | > 100 µM | > 100 µM | > 100 µM | > 100 µM | – | – | – | – | – | – | – | – | –
9 | O=C(O)c1cc(Cl)cc(NC(=O)C(Cl)Cl)c1Cl | > 100 µM | > 100 µM | > 100 µM | > 100 µM | > 100 µM | – | – | – | – | – | – | – | – | –
10 | c1ccc2c(c1)CCCc1cc3ccccc3nc1-2 | > 100 µM | > 100 µM | > 100 µM | > 100 µM | > 100 µM | – | – | – | – | – | – | – | – | –
11 | Cc1ccc(NC(=O)CCC(=O)C2CC(=O)CC/C2=N\NC(=O)c2cc3ccccc3cc2O)cc1C (stereo not given) | 90.7 µM | > 100 µM | 87.9 µM | > 100 µM | > 100 µM | – | – | – | – | – | – | – | – | –
12 | C/C(=N\N(C)C)C(CN(C)C)C(c1ccccc1)c1c(O)c2ccccc2oc1=O (stereo not given) | – | > 100 µM | > 100 µM | > 100 µM | > 100 µM | – | – | – | – | – | – | – | – | –
13 | CC1OC(=O)N(CCCC=C2SCCCS2)C1=O (stereo not given) | > 100 µM | > 100 µM | > 100 µM | – | > 100 µM | – | – | – | – | – | – | – | – | –
14 | CCC1OCCN1C(C)C (stereo not given) | > 100 µM | > 100 µM | > 100 µM | > 100 µM | > 100 µM | – | – | – | – | – | – | – | – | –
15 | CC1=CC2=C(C)C3(CC3)[C@@](C)(O)C(=O)C2=C1 | 0.732 µM | > 0.631 µM | 0.498 µM | > 0.935 µM | 0.783 µM | – | – | – | – | – | – | – | – | –
16 | COc1cc2ccn3c4cc(OC)c(OC)cc4cc3c2cc1OC | > 100 µM | > 100 µM | > 100 µM | > 100 µM | > 100 µM | – | – | – | – | – | – | – | – | –

Row | Compound | TGI (M19-MEL melanoma) | TGI (SNB-78 CNS) | TGI (KM20L2 colon) | TGI (DLD-1 colon) | TGI (LXFL 529 NSCLC) | TGI (PC-3 prostate) | TGI (T-47D breast) | TGI (MCF7 breast) | TGI (NCI/ADR-RES ovarian) | TGI (MDA-MB-435) | GI50 (SNB-78 CNS) | GI50 (KM20L2 colon) | GI50 (DLD-1 colon) | GI50 (LXFL 529 NSCLC)
17 | O=C1OCC(C(=O)c2cccc(O)c2)C1=O (stereo not given) | > 100 µM | > 100 µM | > 100 µM | > 100 µM | > 100 µM | – | – | – | – | – | – | – | – | –
18 | CC1=C(C#N)C(N)=C2C(C)=C(C#N)C(N)=C12 | > 100 µM | > 100 µM | > 100 µM | > 100 µM | > 100 µM | – | – | – | – | – | – | – | – | –
19 | CC(C)c1ccc(/C=C(\NC(=O)c2ccccc2)c2nc3ccccc3[nH]2)cc1 | > 100 µM | > 100 µM | > 100 µM | > 100 µM | > 100 µM | – | – | – | – | – | – | – | – | –
20 | COC(=O)/C(C#N)=C1\N=NNN1CCCN1CCOCC1 | > 100 µM | > 100 µM | – | > 100 µM | > 100 µM | – | – | – | – | – | – | – | – | –
21 | CCOC(=O)c1cnc2[nH]c(=O)c3ccccc3n2c1=O | > 100 µM | > 100 µM | > 100 µM | > 100 µM | > 100 µM | – | – | – | – | – | – | – | – | –
22 | CC1=NN(C(=O)CC(=O)Nc2cccc(Cl)c2)C(=O)C1N=Nc1ccc(S(N)(=O)=O)cc1 (stereo not given) | > 100 µM | > 100 µM | > 100 µM | > 100 µM | > 100 µM | – | – | – | – | – | – | – | – | –
23 | Cc1cc(CS(=O)(=O)/C=C/c2ccccc2[N+](=O)[O-])c(CS(=O)(=O)/C=C/c2ccccc2[N+](=O)[O-])cc1C | > 100 µM | 66.2 µM | > 100 µM | – | > 100 µM | > 100 µM | > 100 µM | > 100 µM | > 100 µM | > 100 µM | – | – | – | –
24 | Cn1c(=O)c2c3oc(=O)cc(O)c3c(=O)n3c4ccccc4n(c1=O)c23 | > 100 µM | > 100 µM | – | > 100 µM | > 100 µM | – | – | – | – | – | – | – | – | –
25 | Cc1nnc2n1N=C(CC(=O)c1ccc(O)cc1O)CN2N | > 100 µM | > 100 µM | > 100 µM | > 100 µM | > 100 µM | – | – | – | – | – | – | – | – | –
26 | CCOC(=O)CCC1(C(=O)OC)CCCC1=O (stereo not given) | > 100 µM | > 100 µM | > 100 µM | > 100 µM | > 100 µM | – | – | – | – | – | – | – | – | –
27 | COC(=O)/C(=N\NC(=O)c1ccccc1O)C(C#N)c1ccc(Cl)cc1 (stereo not given) | > 100 µM | > 100 µM | > 100 µM | > 100 µM | > 100 µM | – | – | – | – | – | – | – | – | –
28 | CC(=O)NC1C(OCc2ccccc2)OC(COC(=O)CCCCCCCCCCNC(=O)c2cccc3c(=O)c4ccccc4[nH]c23)C(O)C1OC(C)C(=O)NC(C)C(=O)NC(CCC(N)=O)C(N)=O (stereo not given) | > 100 µM | > 100 µM | > 100 µM | > 100 µM | > 100 µM | – | – | – | – | – | – | – | – | –
29 | Oc1cc2cc(-c3ccccc3)[nH]c2c2ccccc12 | 28.9 µM | > 100 µM | > 100 µM | > 100 µM | > 100 µM | – | – | – | – | – | – | – | – | –
30 | Cc1cc(N(CCC#N)S(=O)(=O)c2ccccc2)ccc1C=O | – | > 100 µM | > 100 µM | > 100 µM | > 100 µM | – | – | – | – | – | – | – | – | –
31 | O=C1c2c(O)cccc2C(C(=O)CCCCC(=O)C2c3cccc(O)c3C(=O)c3c(O)cccc32)c2cccc(O)c21 | – | 1.23 µM and 5.93 µM | 4.39 µM and 5.46 µM | 4.52 µM and 9.27 µM | 1.01 µM and 1.95 µM | 0.458 µM | 0.919 µM | 6.18 µM | – | 3.01 µM | 1.97 µM | 1.58 µM | 1.68 µM | 1.04 µM
